Values quoted from earlier work as cited in patent publication US20230330185A1, “METHODS AND COMPOSITIONS FOR TRANSDUCING HEMATOPOIETIC STEM AND PROGENITOR CELLS IN VIVO” (Magenta Therapeutics, Inc., priority 2020, published 2023).

Tested on: hematopoietic stem and progenitor cells
Conditions: as described in U.S. Pat. No. 6,080,398 and 6,447,766; cited from earlier work

| Substance | potency to induce hematopoietic stem and progenitor cell mobilization, relative to parent peptide |
| --- | --- |
| Gro-β T N65D: variant of Gro-β T with aspartic acid in place of asparagine at position 65, SEQ ID NO: 4 | substantially greater than that of Gro-β T |
| Gro-β T: truncated Gro-β with deletion of the first four N-terminal amino acids, SEQ ID NO: 2; CXCR2 agonist | superior to that of Gro-β by multiple orders of magnitude |
